Experimental data reported in patent publication US20220259196A1, “2-AMINOPYRIMIDINE COMPOUND AND USES THEREOF” (Shenyang Pharmaceutical University, priority 2019, published 2022).

How the values were obtained:
JAK2 = JAK2 (Homo sapiens, UniProt O60674); test: in vitro JAK2 kinase activity test, Mobility Shift Assay; assay type: biochemical; conditions: compound concentration 0.1 μM; read-out: Percentage of inhibition against JAK2 at 0.1 μM
Description: The in vitro JAK2 and FLT3 kinase activity test was performed on the compounds of the 2-aminopyrimidine backbone of the above formula I (concentration 0.1 μM) according to the present invention using Mobility Shift Assay. The control compounds Pacritinib and Fedratinib were prepared by our research group.
(§1) The kinase buffer was composed of 50 mM HEPEs (pH 7.5) and 0.0015% BRIJ-35. The stop buffer contained a mixture of 100 mM HEPES (pH 7.5), 0.015% BRIJ-35, 0.2% coating reagent #3 and 50 mM EDTA. The compound to be tested was diluted with 100% DMSO to 50 times the highest concentration required in the reaction. The dilution of compound to be tested (100 μL) was transferred to the wells of a 96-well plate. […] was added to two wells of the plate as a control group and the plate was marked as the source plate. 10 μL of compound was transferred from the source plate to a new 96-well plate to prepare an intermediate plate. In the intermediate plate, an additional 90 μL of kinase buffer was added to each well. The intermediate plate was shaken for 10 minutes, and then 5 μL of each well of the 96-well intermediate plate was copied to a 384-well plate as an analysis plate. The prepared enzyme solution was added to each well of the 384-well plate, then incubated at room temperature for 10 minutes, and then 10 μL of the prepared peptide solution (FAM-labeled peptide and ATP in kinase-based buffer) was added. The sample was incubated at 28° C. for 1 hours, and then 25 μL of buffer was added. The conversion data from the Caliper program was copied and converted to the inhibition rate.
(§2) Inhibition rate (%)=(max−conversion)/(max−min)×100.

FLT3 = target: T1, FLT3 (Homo sapiens, UniProt P36888); test: in vitro FLT3 kinase activity test, Mobility Shift Assay; assay type: biochemical; conditions: compound concentration 0.1 μM; read-out: Percentage of inhibition against FLT3 at 0.1 μM
T1 sequence (P36888 27-993): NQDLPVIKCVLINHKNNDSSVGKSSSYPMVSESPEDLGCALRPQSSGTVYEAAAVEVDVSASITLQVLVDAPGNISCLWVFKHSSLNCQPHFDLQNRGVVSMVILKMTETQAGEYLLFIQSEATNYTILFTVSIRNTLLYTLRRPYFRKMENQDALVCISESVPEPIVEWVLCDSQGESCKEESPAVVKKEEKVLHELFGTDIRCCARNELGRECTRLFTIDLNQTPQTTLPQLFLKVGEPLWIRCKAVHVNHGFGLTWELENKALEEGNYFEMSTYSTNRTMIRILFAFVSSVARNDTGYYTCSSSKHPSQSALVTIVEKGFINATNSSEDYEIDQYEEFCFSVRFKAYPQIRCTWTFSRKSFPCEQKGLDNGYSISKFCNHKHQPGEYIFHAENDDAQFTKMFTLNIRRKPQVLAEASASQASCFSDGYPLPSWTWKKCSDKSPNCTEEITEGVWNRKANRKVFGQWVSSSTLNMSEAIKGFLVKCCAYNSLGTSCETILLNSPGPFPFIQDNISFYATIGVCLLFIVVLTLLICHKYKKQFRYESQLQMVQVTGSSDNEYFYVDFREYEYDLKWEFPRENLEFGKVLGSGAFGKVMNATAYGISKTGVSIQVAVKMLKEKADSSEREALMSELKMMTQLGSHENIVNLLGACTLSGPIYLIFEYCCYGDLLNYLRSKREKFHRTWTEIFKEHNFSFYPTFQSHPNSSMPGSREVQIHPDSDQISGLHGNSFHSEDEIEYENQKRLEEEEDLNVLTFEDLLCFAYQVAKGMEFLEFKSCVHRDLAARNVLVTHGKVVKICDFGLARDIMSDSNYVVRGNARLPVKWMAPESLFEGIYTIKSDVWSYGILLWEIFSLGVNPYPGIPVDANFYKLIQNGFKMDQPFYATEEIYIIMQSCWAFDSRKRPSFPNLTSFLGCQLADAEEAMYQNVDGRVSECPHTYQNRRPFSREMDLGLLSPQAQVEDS
Description: The in vitro JAK2 and FLT3 kinase activity test was performed on the compounds of the 2-aminopyrimidine backbone of the above formula I (concentration 0.1 μM) according to the present invention using Mobility Shift Assay.
as §1, §2

Sequence of JAK2 (O60674 whole entry): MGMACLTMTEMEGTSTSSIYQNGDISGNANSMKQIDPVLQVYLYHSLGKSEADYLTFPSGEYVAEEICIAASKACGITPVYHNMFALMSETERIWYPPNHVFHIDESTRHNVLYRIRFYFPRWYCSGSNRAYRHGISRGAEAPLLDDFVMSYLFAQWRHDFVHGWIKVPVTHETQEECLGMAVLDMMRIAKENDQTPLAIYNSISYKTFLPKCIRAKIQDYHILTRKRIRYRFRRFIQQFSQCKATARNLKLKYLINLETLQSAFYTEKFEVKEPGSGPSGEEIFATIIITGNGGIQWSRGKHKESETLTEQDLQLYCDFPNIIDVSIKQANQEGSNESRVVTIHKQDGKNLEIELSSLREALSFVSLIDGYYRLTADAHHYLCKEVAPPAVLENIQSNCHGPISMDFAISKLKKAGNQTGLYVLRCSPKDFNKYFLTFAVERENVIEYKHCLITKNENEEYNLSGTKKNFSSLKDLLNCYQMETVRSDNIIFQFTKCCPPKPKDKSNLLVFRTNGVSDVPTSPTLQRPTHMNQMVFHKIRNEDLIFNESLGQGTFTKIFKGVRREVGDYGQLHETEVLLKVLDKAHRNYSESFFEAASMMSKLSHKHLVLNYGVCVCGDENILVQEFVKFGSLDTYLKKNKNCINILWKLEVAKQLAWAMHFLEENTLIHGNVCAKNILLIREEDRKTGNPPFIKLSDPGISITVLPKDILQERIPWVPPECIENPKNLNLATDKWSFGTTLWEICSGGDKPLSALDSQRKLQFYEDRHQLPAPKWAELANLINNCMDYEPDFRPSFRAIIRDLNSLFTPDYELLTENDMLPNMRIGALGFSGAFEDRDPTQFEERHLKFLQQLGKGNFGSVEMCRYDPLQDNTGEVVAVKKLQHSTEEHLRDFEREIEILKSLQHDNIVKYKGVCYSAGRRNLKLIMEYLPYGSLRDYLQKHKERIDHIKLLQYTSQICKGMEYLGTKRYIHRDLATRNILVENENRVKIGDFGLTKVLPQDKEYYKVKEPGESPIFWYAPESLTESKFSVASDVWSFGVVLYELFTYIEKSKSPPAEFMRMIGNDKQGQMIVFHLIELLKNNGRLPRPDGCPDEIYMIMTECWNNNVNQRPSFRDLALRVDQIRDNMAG

| Compound | inhibition at 0.1 µM (JAK2) | inhibition at 0.1 µM (FLT3) |
| --- | --- | --- |
| CC(=O)c1ccc(NC(=O)N2CCN(c3ccnc(Nc4ccc(N5CCC(C)CC5)cc4)n3)CC2)cc1 [Example 17, N-(4-acetylphenyl)-4-(2-{[4-(4-methylpiperidin-1-yl)phenyl]amino}pyrimidin-4-yl)piperazine-1-carboxamide] | 53% | 54% |
| NS(=O)(=O)c1ccc(NC(=O)N2CCN(c3ccnc(Nc4ccc(N5CCOCC5)cc4)n3)CC2)cc1 [Example 12, N-(4-aminosulfonylphenyl)-4-(2-{[4-(morpholin-4-yl)phenyl]amino}pyrimidin-4-yl)piperazine-1-carboxamide] | 76% | 69.7% |
| COc1ccc(NC(=O)N2CCN(c3ccnc(Nc4ccc(N5CCOCC5)cc4)n3)CC2)cc1 [Example 1, N-(4-methoxyphenyl)-4-(2-{[4-(morpholin-4-yl)phenyl]amino}pyrimidin-4-yl)piperazine-1-carboxamide] | 48.7% | 21.7% |
| N#Cc1ccc(NC(=O)N2CCN(c3ccnc(Nc4ccc(N5CCOCC5)cc4)n3)CC2)cc1F [Example 8, N-(4-cyano-3-fluorophenyl)-4-(2-{[4-(morpholin-4-yl)phenyl]amino}pyrimidin-4-yl)piperazine-1-carboxamide] | 63.7% | 70.3% |
| CC(=O)c1ccc(NC(=O)N2CCN(c3nc(Nc4ccc(N5CCOCC5)cc4)ncc3N)CC2)cc1 [Example 27, N-(4-acetylphenyl)-4-(5-amino-2-{[4-(morpholin-4-yl)phenyl]amino}pyrimidin-4-yl)piperazine-1-carboxamide] | 22.8% | 67.9% |
| CC(=O)c1ccc(NC(=O)NC2CCN(c3nc(Nc4ccc(N5CCOCC5)cc4)ncc3C)C2)cc1 (stereo not drawn) [Example 29, 1-(4-acetylphenyl)-3-[1-(5-methyl-2-{[4-(morpholin-4-yl)phenyl]amino}pyrimidin-4-yl)pyrrolidin-3-yl]urea] | 57.4% | 75.7% |
| CCc1ccc(NC(=O)N2CCN(c3ccnc(Nc4ccc(N5CCOCC5)cc4)n3)CC2)cc1 [Example 3, N-(4-ethylphenyl)-4-(2-{[4-(morpholin-4-yl)phenyl]amino}pyrimidin-4-yl)piperazine-1-carboxamide] | 53.3% | 27.4% |
| CC(=O)c1ccc(NC(=O)N2CCC(Nc3nc(Nc4ccc(N5CCOCC5)cc4)ncc3C)C2)cc1 (stereo not drawn) [Example 28, N-(4-acetylphenyl)-3-[(5-methyl-2-{[4-(morpholin-4-yl)phenyl]amino}pyrimidin-4-yl)amino]pyrrolidine-1-carboxamide] | 69.3% | 57.3% |
| COC(=O)c1ccc(NC(=O)N2CCN(c3ccnc(Nc4ccc(N5CCOCC5)cc4)n3)CC2)cc1 [Example 5, N-(4-methoxyformylphenyl)-4-(2-{[4-(morpholin-4-yl)phenyl]amino}pyrimidin-4-yl)piperazine-1-carboxamide] | 64.4% | 62.8% |
| CN1CCN(c2ccc(Nc3nccc(N4CCN(C(=O)Nc5ccc(C(N)=O)cc5)CC4)n3)cc2)CC1 [Example 15, N-(4-carbamoylphenyl)-4-(2-{[4-(4-methylpiperazin-1-yl)phenyl]amino}pyrimidin-4-yl)piperazine-1-carboxamide] | 84% | 85% |
| O=C(Nc1ccc([N+](=O)[O-])cc1)N1CCN(c2ccnc(Nc3ccc(N4CCOCC4)cc3)n2)CC1 [Example 7, N-(4-nitrophenyl)-4-(2-{[4-(morpholin-4-yl)phenyl]amino}pyrimidin-4-yl)piperazine-1-carboxamide] | 79.3% | 84.4% |
| O=C(Nc1ccc(OC(F)(F)F)cc1)N1CCN(c2ccnc(Nc3ccc(N4CCOCC4)cc3)n2)CC1 [Example 2, N-(4-trifluoromethoxyphenyl)-4-(2-{[4-(morpholin-4-yl)phenyl]amino}pyrimidin-4-yl)piperazine-1-carboxamide] | 54.3% | 30.5% |
| CC(=O)Nc1ccc(NC(=O)N2CCN(c3ccnc(Nc4ccc(N5CCOCC5)cc4)n3)CC2)cc1 [Example 13, N-(4-acetylaminophenyl)-4-(2-{[4-(morpholin-4-yl)phenyl]amino}pyrimidin-4-yl)piperazine-1-carboxamide] | 73% | 70.8% |
| CC(=O)c1ccc(NC(=O)N2CCN(c3ccnc(Nc4ccc(OCCN5CCCC5)cc4)n3)CC2)cc1 [Example 16, N-(4-acetylphenyl)-4-[2-({4-[2-(pyrrolidin-1-yl)ethoxy]phenyl}amino)pyrimidin-4-yl]piperazine-1-carboxamide] | 45% | 69% |
| CC(=O)c1ccc(NC(=O)NC2CN(c3nc(Nc4ccc(N5CCOCC5)cc4)ncc3C)C2)cc1 [Example 31, 1-(4-acetylphenyl)-3-[1-(5-methyl-2-{[4-(morpholin-4-yl)phenyl]amino}pyrimidin-4-yl)azetidin-3-yl]urea] | 21.9% | 50% |
| NC(=O)c1ccc(NC(=O)N2CCN(c3ccnc(Nc4ccc(N5CCOCC5)cc4)n3)CC2)cc1 [Example 10, N-(4-carbamoylphenyl)-4-(2-{[4-(morpholin-4-yl)phenyl]amino}pyrimidin-4-yl)piperazine-1-carboxamide] | 76.3% | 71.2% |
| O=C(Nc1ccccc1)N1CCN(c2ccnc(Nc3ccc(N4CCOCC4)cc3)n2)CC1 [Example 4, N-phenyl-4-(2-{[4-(morpholin-4-yl)phenyl]amino}pyrimidin-4-yl)piperazine-1-carboxamide] | 53.7% | 30.8% |
| CNC(=O)c1ccc(NC(=O)N2CCN(c3ccnc(Nc4ccc(N5CCOCC5)cc4)n3)CC2)cc1 [Example 11, N-(4-methylcarbamoylphenyl)-4-(2-{[4-(morpholin-4-yl)phenyl]amino}pyrimidin-4-yl)piperazine-1-carboxamide] | 68.1% | 35.8% |
| CC(=O)c1ccc(NC(=O)N2CCN(c3ccnc(Nc4ccc(OCCCN5CCOCC5)cc4)n3)CC2)cc1 [Example 19, N-(4-acetylphenyl)-4-[2-({4-[3-(morpholin-4-yl)propoxy]phenyl}amino)pyrimidin-4-yl]piperazine-1-carboxamide] | 60.9% | 70.9% |
| CC(=O)c1ccc(NC(=O)N2CCN(c3nc(Nc4ccc(N5CCOCC5)cc4)nc4ccsc34)CC2)cc1 [Example 24, N-(4-acetylphenyl)-4-(2-{[4-(morpholin-4-yl)phenyl]amino}thieno[3,2-d]pyrimidin-4-yl)piperazine-1-carboxamide] | 44% | 68% |
| CC(=O)c1ccc(NC(=O)N2CCN(c3ccnc(Nc4ccc(OCCN5CCOCC5)cc4)n3)CC2)cc1 [Example 18, N-(4-acetylphenyl)-4-[2-({4-[2-(morpholin-4-yl)ethoxy]phenyl}amino)pyrimidin-4-yl]piperazine-1-carboxamide] | 61.7% | 70.6% |
